Measurements as given in patent publication EP4570803A1, “SALT FORM AND CRYSTAL FORM OF 5,6-DIHYDROTHIENO[3,4-H]QUINAZOLINE COMPOUND AND PREPARATION METHOD THEREFOR” (NovaOnco JS Therapeutics Co., Ltd., priority 2022, dated 2024).

Experiments:
[1] = Crystalline form screening: anti-solvent crystallization; format: physicochemical; conditions: 25 - 5 °C
From the text: The operation process of anti-solvent crystallization was to dissolve a certain amount of the crystalline form A of the compound of formula (I) in a positive solvent to obtain a solution of the raw material drug, slowly add the raw material drug solution to the anti-solvent at a certain temperature, and filter out any solid precipitation for analysis. Table 8. Anti-solvent crystallization

[2] = target: T1, human PLK1 protein kinase (Homo sapiens, UniProt P53350); assay: 33P isotope-labeled PLK1 kinase activity assay in vitro; format: biochemical
T1 construct: purchased Reaction Biology Corp
T1 sequence (P53350 whole entry): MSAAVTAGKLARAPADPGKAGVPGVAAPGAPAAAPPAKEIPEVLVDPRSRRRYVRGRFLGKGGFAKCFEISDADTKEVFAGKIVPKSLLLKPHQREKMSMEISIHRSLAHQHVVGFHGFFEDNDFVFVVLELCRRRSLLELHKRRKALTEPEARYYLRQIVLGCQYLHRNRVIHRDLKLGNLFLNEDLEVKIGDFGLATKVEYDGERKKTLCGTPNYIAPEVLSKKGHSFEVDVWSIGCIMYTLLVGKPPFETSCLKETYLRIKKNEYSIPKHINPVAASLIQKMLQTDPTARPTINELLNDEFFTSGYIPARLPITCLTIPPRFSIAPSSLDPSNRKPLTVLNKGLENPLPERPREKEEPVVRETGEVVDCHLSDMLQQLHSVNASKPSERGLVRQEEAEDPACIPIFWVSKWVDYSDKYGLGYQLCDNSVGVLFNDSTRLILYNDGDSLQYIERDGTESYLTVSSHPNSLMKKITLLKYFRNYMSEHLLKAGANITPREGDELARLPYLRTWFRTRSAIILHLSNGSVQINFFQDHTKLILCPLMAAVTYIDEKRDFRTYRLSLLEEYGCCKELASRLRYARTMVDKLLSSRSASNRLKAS
Procedure: The IC50 value was determined using ^33P isotope-labeled kinase activity assay (Reaction Biology Corp) to evaluate the inhibitory ability of the test compounds on human PLK1 protein kinase.
Buffer conditions: 20 mM HEPES (pH 7.5), 10 mM MgCl2, 1 mM EGTA, 0.01% Brij35, 0.02 mg/ml BSA, 0.1 mM Na3VO4, 2 mM DTT, 1% DMSO
Test steps: Dissolve the test compound in DMSO at room temperature to prepare a 10 mM solution for use. Dissolve the substrate Casein in a freshly prepared buffer (final concentration 20 µM), add the tested PLK1 kinase (final concentration 12 nM) and mix well. Add the DMSO-dissolved test compound stock solution to the above mixed reaction solution using the acoustic pipetting system Echo 550 according to the set final concentration gradient (highest final concentration was 1 µM, 3-fold dilution, 10 gradients). After incubation at room temperature for 20 minutes, add ^33 P-ATP (final concentration 0.01 µCi/µL), incubate at room temperature for 120 minutes, and then spot the reaction solution on P81 ion exchange filter paper (Whatman # 3698-915). After repeatedly washing the filter paper with 0.75% phosphoric acid solution, the level of residual radioactive phosphorylated substrate on the filter paper was determined. % kinase activity = kinase activity test compound/ kinase activity blank group (DMSO) × 100%. […]

[3] = Pharmacokinetic study of oral administration in male beagle dogs; format: in vivo
Procedure: Oral administration group: Weigh an appropriate amount of the test compound (calculated in free form), dissolve it in a 0.5% MC aqueous solution, vortex and sonicate for 10 min until the compound was milky white and uniformly suspended, and prepare a 1.0 mg/mL uniform suspension solution for use. Male beagle dogs weighing about 11 kg were selected and orally administered with the test compound. Sample collection time was: 0.083, 0.25, 0.5, 1, 2, 4, 6, 8, and 24 hours.
1 mL of whole blood was collected from the forelimb vein to prepare plasma for concentration determination by high performance liquid chromatography - tandem mass spectrometry (LC-MS/MS). The non-compartmental model of WinNonlin 8.2.0 (Pharsight, Mountain View, CA), pharmacokinetic software, was used to process plasma concentrations, and the linear logarithmic trapezoidal method was used to calculate pharmacokinetic parameters. Pharmacokinetic study results of crystalline form A, crystalline form B and crystalline form C

[4] = Hygroscopicity study by Dynamic Vapor Sorption (DVS); format: physicochemical; conditions: for Hygroscopicity classification: 25°C and 80% RH; for ΔW: weight gain at 25°C, humidity 80 % RH
Procedure: • Instrument model: SMS DVS Intrinsic Dynamic Vapor Sorption Instrument • Test conditions: Take a sample (10 ~ 30 mg) and place it in the DVS sample pan for testing.
Hygroscopicity classification
10-30 mg of the crystalline form A of the compound of formula (I) was placed in a DVS sample tray for testing.
10-30 mg of the crystalline form B of the compound of formula (II) was placed in a DVS sample tray for testing.
10-30 mg of the crystalline form C of the compound of formula (III) was placed in a DVS sample tray for testing.

[5] = Crystalline form screening: suspension crystallization; format: physicochemical; conditions: for Result (crystal form): 50 °C, suspension
From the text: The operation process of suspension crystallization was to weigh a certain amount of the crystalline form A of the compound of formula (I), add a certain amount of solvent, maintain the system in a state of suspension and stir at a certain temperature, and filter out the solid for analysis after a period of time. Table 6. Suspension crystallization

[6] = Solid stability test at high temperature and high humidity (XRPD); format: physicochemical
Procedure: According to the "Guidelines for Stability Testing of APIs and Preparations" (Chinese Pharmacopoeia 2020 Edition, Part IV, General Rules 9001), the stabiilty of the crystalline form A of compound of formula (I) and the crystalline form B of compound of formula (II) was investigated at high temperature and high humidity (40°C/75%RH, open) (60°C/75%RH, open) conditions.
Weigh 10-30 mg of the crystalline form A of the formula (I) and the crystalline form B of the compound of formula (II), place them at the bottom of a glass sample bottle, and spread them into a thin layer. The samples were placed open to ensure that the samples were fully in contact with the ambient air. The samples placed under different conditions were sampled and tested (XRPD) on the 10th day, 30th day, and 60th day, and the test results were compared with the initial test results on day 0. Stability test results of the crystalline form of compound A of formula (I) and the crystalline form B of compound of formula (II)

[7] = Crystalline form screening: cooling crystallization; format: physicochemical; conditions: 50-25 °C
From the text: The cooling crystallization operation process was to dissolve a certain amount of the crystalline form A of the compound of formula (I) in a certain amount of solvent at high temperature, stir at high temperature for a period of time, and then cool to a lower temperature at a certain cooling rate. If solid precipitates after cooling to a low temperature, filter it out for solid state analysis. Table 7. Cooling crystallization

[8] = dog, 5 mg/kg, PO, 5.0 mpk (calculated in free state), 0.5% MC aqueous suspension, plasma
[9] = dog, plasma, po, 5 mg/kg, 5.0 mpk (calculated in free state), 0.5% MC aqueous suspension
[10] = listed as crystalline form C of the compound of formula (III)

CSc1sc(C(N)=O)c2c1-c1nc(Nc3cc(N4CCN(C)CC4)ccc3OC(F)(F)F)ncc1CC2 [listing 1 of 3 here]
Result (crystal form) ([1]; Condition 1: solvent THF, antisolvent H2O, 2.0+4.0 mL): crystal form A | Result (crystal form) ([1]; Condition 2: solvent THF, antisolvent IPA, 2.0+6 0. mL): crystal form A | Result (crystal form) ([1]; Condition 3: solvent THF, antisolvent Tol, 2.0+4.0 mL): crystal form A | Result (crystal form) ([1]; Condition 4: solvent DCM, antisolvent ACN, 4.0 mL): crystal form A | Result (crystal form) ([1]; Condition 5: solvent DCM, antisolvent MTBE, 4.0 mL): crystal form A | Result (crystal form) ([1]; Condition 6: solvent DMSO, antisolvent EtOAc, 0.6+8.0 mL): crystal form A | inhibitory activity against PLK1 ([2]; conclusion): good inhibitory activity | IC50 ([2]; substrate Casein 20 µM, PLK1 12 nM, 33P-ATP, 120 minutes at room temperature): 2.48 nM | absorption after oral administration ([3]; conclusion): well absorbed | AUC(0-t) [3, 8]: 0.907 µM·h | Cmax [3, 8]: 106 nM | Tmax [3, 8]: 3 h | half-life [3, 8]: 4.6 h | Hygroscopicity classification [4]: not hygroscopic | ΔW [4]: 0.1671% | Result (crystal form) ([5]; Condition 1: Acetonitrile 2.0 mL): crystal form A | Result (crystal form) ([5]; Condition 2: Ethyl acetate 2.0 mL): crystal form A | Result (crystal form) ([5]; Condition 3: Toluene 2.0 mL): crystal form A | Result (crystal form) ([5]; Condition 4: Butanone 1.0 mL): crystal form A | stability in different solvents and at different temperatures ([5]; conclusion over suspension, cooling and anti-solvent crystallization): good stability | Crystal form ([6]; 40 °C /75%RH, open, 10 days): crystal form A | Crystal form ([6]; 40 °C /75%RH, open, 30 days): crystal form A | Crystal form ([6]; 40 °C /75%RH, open, 60 days): crystal form A | Crystal form ([6]; 60 °C /75%RH, open, 10 days): crystal form A | Crystal form ([6]; 60 °C /75%RH, open, 30 days): crystal form A | Crystal form ([6]; 60 °C /75%RH, open, 60 days): crystal form A | Crystal form ([6]; Initial sample, Day 0): crystal form A | stability under high temperature and high humidity conditions ([6]; conclusion): good stability | Result (crystal form) ([7]; Condition 1: Tetrahydrofuran 1.0 mL): crystal form A | Result (crystal form) ([7]; Condition 2: 2- methyl - tetrahydrofuran 5.0 mL): crystal form A

CSc1sc(C(N)=O)c2c1-c1nc(Nc3cc(N4CCN(C)CC4)ccc3OC(F)(F)F)ncc1CC2 [listing 2 of 3 here]
AUC(0-t) at 24 h [3, 9]: 1.11 µM·h | Cmax [3, 9]: 123 nM | Tmax [3, 9]: 4 h | half-life [3, 9]: 5 h | Hygroscopicity classification ([4]; listed as crystalline form B of the compound of formula (II)): hygroscopic | ΔW ([4]; listed as crystalline form B of compound (II)): 2.078% | Crystal form ([6]; 40 °C /75%RH, open, 10 days, listed as Crystalline Form B of Compound of Formula (II)): crystal form B | Crystal form ([6]; 60 °C /75%RH, open, 10 days, listed as Crystalline Form B of Compound of Formula (II)): crystal form B | Crystal form ([6]; Initial sample, Day 0, listed as Crystalline Form B of Compound of Formula (II)): crystal form B

CSc1sc(C(N)=O)c2c1-c1nc(Nc3cc(N4CCN(C)CC4)ccc3OC(F)(F)F)ncc1CC2 [listing 3 of 3 here]
AUC(0-t) at 24 h [3, 8]: 1.59 µM·h | Cmax [3, 8]: 132 nM | Tmax [3, 8]: 6 h | half-life [3, 8]: 4 h | Hygroscopicity classification [4, 10]: hygroscopic | ΔW [4, 10]: 2.919%
